The values that follow come from patent US11667606B2, “Thyromimetics” (Autobahn Therapeutics, Inc., priority 2019, dated 2023).

Experiment [1] deals with T1, TRα (Homo sapiens, UniProt P10827).
T1 construct: expressed in transfected cells; host or cells: HEK293
T1 sequence (P10827 128-410 isoform P10827-2 limits assumed): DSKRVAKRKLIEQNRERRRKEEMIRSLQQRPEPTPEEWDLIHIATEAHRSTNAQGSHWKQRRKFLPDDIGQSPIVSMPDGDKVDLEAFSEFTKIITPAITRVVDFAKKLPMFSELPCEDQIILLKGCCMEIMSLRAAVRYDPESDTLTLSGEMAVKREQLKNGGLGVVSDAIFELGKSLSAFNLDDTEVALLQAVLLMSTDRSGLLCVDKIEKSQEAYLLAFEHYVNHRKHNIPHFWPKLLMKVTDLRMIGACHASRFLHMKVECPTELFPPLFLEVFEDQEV
As to the kind of experiment: Thyroid-hormone reporter-gene assay, TRα (Gal4 DBD hybrid, luciferase, HEK293). The experiment is classed as cell-based. The settings on record: reporter cells derived from HEK293, 24 hr incubation, luciferase readout. As for the experimental part: (§1) Compounds were tested for thyroid-hormone receptor activity using TR reporter-gene assays. Reporter cells used in the assays express a TR-receptor hybrid (either TRα or TRβ) in which the native N-terminal DNA binding domain (DBD) has been replaced with that of the yeast Gal4 DBD. The reporter gene, firefly luciferase, is functionally linked to the Gal4 upstream activation sequence (UAS). Both cell lines were derived from human embryonic kidney (HEK293).
(§2) A suspension of reporter cells was prepared in cell recovery medium containing 10% charcoal-stripped FBS, and dispensed into assay plates. The plates were pre-incubated for 6 hours in a cell culture incubator (37° C./5% CO2/85% humidity).
(§3) These intermediate stocks were subsequently diluted directly into compound screening medium containing 10% charcoal-stripped FBS to generate “2×-concentration” treatment media (containing 0.2, 0.4 or 0.8% DMSO).
(§4) At the end of the pre-incubation period, culture media were discarded from the assay plates, and all wells received 100 μl of compound screening medium. 100 μl of each of the previously prepared “2×-concentration” treatment media were dispensed into duplicate assay wells, thereby achieving the desired final treatment concentrations. The final concentration of DMSO in all assay wells was 0.1, 0.2 or 0.4%. Assay plates were incubated for 24 hr in a cell culture incubator (37° C./5% CO2/85% humidity).
(§5) At the 24 h assay endpoint, treatment media were discarded and […] of luciferase detection reagent was added. Relative luminometer units (RLUs) were quantified from each assay well.

Experiment [2] concerns the target T2, TRβ (Homo sapiens, UniProt P10828).
T2 construct: expressed in transfected cells; host or cells: HEK293
T2 sequence (P10828 217-461 limits assumed): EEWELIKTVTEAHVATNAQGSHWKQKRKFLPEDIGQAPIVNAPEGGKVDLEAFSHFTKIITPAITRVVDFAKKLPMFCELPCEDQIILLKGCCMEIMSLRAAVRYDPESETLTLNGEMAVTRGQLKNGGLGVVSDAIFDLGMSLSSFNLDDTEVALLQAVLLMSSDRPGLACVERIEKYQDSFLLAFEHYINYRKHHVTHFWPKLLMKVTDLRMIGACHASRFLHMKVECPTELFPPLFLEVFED
Put plainly: Thyroid-hormone reporter-gene assay, TRβ (Gal4 DBD hybrid, luciferase, HEK293). The settings on record: for EC50: reporter cells derived from HEK293, 24 hr incubation, luciferase readout; for T3-SI, selectivity index (SI) calculated as EC50 (TRα)/EC50 (TRβ): TRβ over TRα selectivity from reporter-gene EC50 values. The format is cell-based. On the procedure:
as §1, §2, §3, §4, §5

Some results are limits rather than exact numbers.

The term EC50 denotes the concentration giving half of the maximal effect. Regarding `CC(=O)c1cccc(-c2cc(Cc3c(Cl)cc(OCC(=O)O)cc3Cl)ccc2O)c1` [Compound 11, 2-(4-((3′-acetyl-6-hydroxy-[1,1′-biphenyl]-3-yl)methyl)-3,5-dichlorophenoxy)acetic Acid], the EC50 in experiment [1] and in experiment [2] was more than 1000 nM each time.

Turning to `Cc1cc(OCC(=O)O)cc(Br)c1Cc1ccc(O)c(-c2cccc(OC(F)F)c2)c1` [Compound 66, 2-(3-bromo-4-((3′-(difluoromethoxy)-6-hydroxy-[1,1′-biphenyl]-3-yl)methyl)-5-methylphenoxy)acetic Acid], the figures for the EC50 in experiment [1] and in experiment [2] were 100 to 1000 nM and 10 to 100 nM, respectively. The “T3-SI, selectivity index (SI) calculated as EC50 (TRα)/EC50 (TRβ)” value (shortened to “T3-SI, selectivity index (SI) calculated”) in experiment [2] was “++ (3X < T3-SI ≤ 30X)”.

In turn, `O=C(O)COc1cc(Cl)c(Cc2ccc(O)c(Cc3ccncc3)c2)c(Cl)c1` [Compound 82, 2-(3,5-dichloro-4-(4-hydroxy-3-(pyridin-4-ylmethyl)benzyl)phenoxy) acetic Acid] gave an EC50 in experiment [1] of more than 1000 nM. Besides, in experiment [2], the “T3-SI, selectivity index (SI) calculated” value is “++ (3X < T3-SI ≤ 30X)” and the EC50 was more than 1000 nM.

Turning to `C[C@@H](c1ccc(F)cc1)c1cc(Cc2c(Cl)cc(OCC(=O)O)cc2Cl)ccc1O` (single isomer, unassigned) [Compound 74], the EC50 in experiment [1] is more than 1000 nM. Besides, in experiment [2], the “T3-SI, selectivity index (SI) calculated” value is reported as “++ (3X < T3-SI ≤ 30X)” and the EC50 was in the range of 100 to 1000 nM.

Compound `Cc1cc(OCC(=O)O)cc(C)c1Cc1ccc(O)c(Cc2ccc(F)cc2)c1` [Compound 133, 2-(4-(3-(4-fluorobenzyl)-4-hydroxybenzyl)-3,5-dimethylphenoxy)acetic Acid] showed an EC50 in experiment [1] of 100 to 1000 nM. Further, in experiment [2], the “T3-SI, selectivity index (SI) calculated” value is “++ (3X < T3-SI ≤ 30X)” and the EC50 was 10 to 100 nM.

`CCC(c1ccc(F)cc1)c1cc(Cc2c(Cl)cc(OCC(=O)O)cc2Cl)ccc1O` (stereo not shown) [Compound 98, 2-(3,5-dichloro-4-(3-(1-(4-fluorophenyl)propyl)-4-hydroxybenzyl)phenoxy)acetic Acid]: the EC50 in experiment [1] fell in the range of 100 to 1000 nM. In experiment [2], the “T3-SI, selectivity index (SI) calculated” value is reported as “++ (3X < T3-SI ≤ 30X)” and the EC50 fell in the range of 10 to 100 nM.

Regarding `CC(C)c1cccc(-c2cc(Cc3c(Cl)cc(OCC(=O)O)cc3Cl)ccc2O)c1` [Compound 13, 2-(3,5-dichloro-4-((6-hydroxy-3′-isopropyl-[1,1′-biphenyl]-3-yl)methyl)phenoxy)acetic Acid], the EC50 in experiment [1] was more than 1000 nM; in experiment [2], 100 to 1000 nM. For the same compound, in experiment [2], the “T3-SI, selectivity index (SI) calculated” value is “+++ (T3-SI > 30X)”.

As for `Cc1cc(OCC(=O)O)cc(Cl)c1Cc1ccc(O)c(-c2cccc(C(F)(F)F)c2)c1` [Compound 64, 2-(3-chloro-4-((6-hydroxy-3′-(trifluoromethyl)-[1,1′-biphenyl]-3-yl)methyl)-5-methylphenoxy)acetic Acid], the EC50 in experiment [1] and in experiment [2] was 100 to 1000 nM each time. Besides, in experiment [2], the “T3-SI, selectivity index (SI) calculated” value was “++ (3X < T3-SI ≤ 30X)”.

For the compound `C[C@H](c1ccc(F)cc1)c1cc(Cc2c(Cl)cc(OCC(=O)O)cc2Cl)ccc1O` (single isomer, unassigned) [Compound 75], the EC50 in experiment [1] lay in the range of 10 to 100 nM. Also, in experiment [2], the “T3-SI, selectivity index (SI) calculated” value is recorded as “++ (3X < T3-SI ≤ 30X)” and the EC50 was less than 10 nM.

For `C=C(C)c1cccc(-c2cc(Cc3c(Cl)cc(OCC(=O)O)cc3Cl)ccc2O)c1` [Compound 22, 2-(3,5-dichloro-4-((6-hydroxy-3′-(prop-1-en-2-yl)-[1,1′-biphenyl]-3-yl)methyl)phenoxy)acetic Acid], the EC50 in experiment [1] and in experiment [2] was more than 1000 nM throughout.

In turn, `O=C(O)COc1cc(Cl)c(Cc2ccc(O)c(C(CC(F)(F)F)c3ccc(F)cc3)c2)c(Cl)c1` (stereo not shown) [Compound 127, 2-(3,5-dichloro-4-(4-hydroxy-3-(3,3,3-trifluoro-1-(4-fluorophenyl)propyl)benzyl)phenoxy)acetic Acid] showed an EC50 in experiment [1] of 100 to 1000 nM. Also, in experiment [2], the “T3-SI, selectivity index (SI) calculated” value was “++ (3X < T3-SI ≤ 30X)” and the EC50 fell in the range of 10 to 100 nM.

Turning to `O=C(O)COc1cc(Cl)c(Cc2ccc(O)c(C3CCCc4cc(F)ccc43)c2)c(Cl)c1` (stereo not shown) [Compound 111, 2-(3,5-dichloro-4-(3-(6-fluoro-1,2,3,4-tetrahydronaphthalen-1-yl)-4-hydroxybenzyl)phenoxy)acetic Acid], the EC50 in experiment [1] was 100 to 1000 nM. In experiment [2], the “T3-SI, selectivity index (SI) calculated” value is on record as “++ (3X < T3-SI ≤ 30X)” and the EC50 lay within 100 to 1000 nM.

As for `CC(C)C(c1ccc(F)cc1)c1cc(Cc2c(Cl)cc(OCC(=O)O)cc2Cl)ccc1O` (stereo not shown) [Compound 104, 2-(3,5-dichloro-4-(3-(1-(4-fluorophenyl)-2-methylpropyl)-4-hydroxybenzyl)phenoxy)acetic Acid], in experiment [1], the EC50 lay within 100 to 1000 nM. Besides, in experiment [2], the “T3-SI, selectivity index (SI) calculated” value is listed as “++ (3X < T3-SI ≤ 30X)” and the EC50 was 10 to 100 nM.

Turning to `O=C(O)COc1cc(Cl)c(Cc2ccc(O)c(-c3ccsc3)c2)c(Cl)c1` [Compound 42, 2-(3,5-dichloro-4-(4-hydroxy-3-(thiophen-3-yl)benzyl)phenoxy)acetic acid], the EC50 in experiment [1] was more than 1000 nM; in experiment [2], 100 to 1000 nM. Further, in experiment [2], the “T3-SI, selectivity index (SI) calculated” value is “++ (3X < T3-SI ≤ 30X)”.

On to `O=C(O)COc1cc(Cl)c(Cc2ccc(O)c(Cc3ccc(Cl)cc3)c2)c(Cl)c1` [Compound 90, 2-(3,5-dichloro-4-(3-(4-chlorobenzyl)-4-hydroxybenzyl)phenoxy)acetic Acid], for which, in experiment [1], the EC50 is more than 1000 nM. Also, in experiment [2], the “T3-SI, selectivity index (SI) calculated” value is reported as “++ (3X < T3-SI ≤ 30X)” and the EC50 was more than 1000 nM.

Consider `O=C(O)COc1cc(Cl)c(Cc2ccc(O)c(-c3cccs3)c2)c(Cl)c1` [Compound 34, 2-(3,5-dichloro-4-(4-hydroxy-3-(thiophen-2-yl)benzyl)phenoxy)acetic acid], for which the EC50 in experiment [1] is more than 1000 nM. In experiment [2], the “T3-SI, selectivity index (SI) calculated” value is on record as “++ (3X < T3-SI ≤ 30X)” and the EC50 lay within 100 to 1000 nM.

The compound `O=C(O)COc1cc(Cl)c(Cc2ccc(O)c(C(c3ccc(F)cc3)C3CCC3)c2)c(Cl)c1` (stereo not shown) [Compound 109, 2-(3,5-dichloro-4-(3-(cyclobutyl(4-fluorophenyl)methyl)-4-hydroxybenzyl)phenoxy)acetic Acid] registered an EC50 in experiment [1] of more than 1000 nM. For the same compound, in experiment [2], the “T3-SI, selectivity index (SI) calculated” value is “+++ (T3-SI > 30X)” and the EC50 was in the range of 100 to 1000 nM.

With `O=C(O)COc1cc(Cl)c(Cc2ccc(O)c(-c3cccc(Cl)c3)c2)c(Cl)c1` [Compound 29, 2-(3,5-dichloro-4-((3′-chloro-6-hydroxy-[1,1′-biphenyl]-3-yl)methyl)phenoxy)acetic Acid], the EC50 in experiment [1] is 100 to 1000 nM; in experiment [2], 10 to 100 nM. In addition, in experiment [2], the “T3-SI, selectivity index (SI) calculated” value is recorded as “++ (3X < T3-SI ≤ 30X)”.

The compound `O=C(O)COc1cc(Cl)c(Cc2ccc(O)c(-c3cc(F)cc(OC(F)F)c3)c2)c(Cl)c1` [Compound 54, 2-(3,5-dichloro-4-((3′-(difluoromethoxy)-5′-fluoro-6-hydroxy-[1,1′-biphenyl]-3-yl)methyl)phenoxy)acetic Acid] had an EC50 in experiment [1] of more than 1000 nM. In experiment [2], the “T3-SI, selectivity index (SI) calculated” value is given as “++ (3X < T3-SI ≤ 30X)” and the EC50 lay within 100 to 1000 nM.

For the compound `O=C(O)COc1cc(Cl)c(Cc2ccc(O)c(-c3csc(Cl)c3)c2)c(Cl)c1` [Compound 43, 2-(3,5-dichloro-4-(3-(5-chlorothiophen-3-yl)-4-hydroxybenzyl)phenoxy) acetic Acid], in experiment [1], the EC50 was more than 1000 nM. In experiment [2], the “T3-SI, selectivity index (SI) calculated” value is reported as “++ (3X < T3-SI ≤ 30X)” and the EC50 lay within 100 to 1000 nM.

In experiment [1], `O=C(O)COc1cc(Cl)c(Cc2ccc(O)c(-c3cc(C(F)(F)F)ccc3F)c2)c(Cl)c1` [Compound 45, 2-(3,5-dichloro-4-((2′-fluoro-6-hydroxy-5′-(trifluoromethyl)-[1,1′-biphenyl]-3-yl)methyl)phenoxy)acetic Acid] displayed an EC50 of 100 to 1000 nM. Besides, in experiment [2], the “T3-SI, selectivity index (SI) calculated” value was “++ (3X < T3-SI ≤ 30X)” and the concentration giving a half-maximal response (EC50) is 10 to 100 nM.

`C=Cc1cccc(-c2cc(Cc3c(Cl)cc(OCC(=O)O)cc3Cl)ccc2O)c1` [Compound 21, 2-(3,5-dichloro-4-((6-hydroxy-3′-vinyl-[1,1′-biphenyl]-3-yl)methyl)phenoxy)acetic Acid]: the EC50 in experiment [1] was more than 1000 nM. In experiment [2], the “T3-SI, selectivity index (SI) calculated” value is “++ (3X < T3-SI ≤ 30X)” and the EC50 is 100 to 1000 nM.
